Several values for one entry are separate records, joined by “and”; a condition that tells them apart may be missing. Equal entries are not always repeated.
What was measured:
[1] = Desorption of MeBT from GAC surfaces; type: physicochemical; conditions: 30 day period, metal- and benzotriazole-free solutions, pH 2-5, varying ionic strength
Experimental: After sorption, GAC was removed, washed with water, and then transferred to a clean electrolyte solution at different pH (pH 2-4) to investigate the stability of the metal: 5-MeBT complexes once immobilized on activated carbon. After 24 hours of equilibration and at time intervals 0, 7, and 30 days, 5 mls of each sample was centrifuged and analyzed for both metal and 5-MeBT content using both ICP/EAS and HPLC.
The potential for the desorption of MeBT from GAC surfaces was monitored over a 30 day period.

[2] = cited from earlier work
[3] = Batch microcosm immobilization of copper on Calgon MRX-P GAC
Experimental: (§1) Experiments were executed to bracket a range of MeBT and carbon concentrations near the sorptive capacity of calgon MRX, as judged by Freundlich isotherm modeling (c.a. 49 mg/g). Lead, copper, and zinc were chosen as models to study the complexation behavior and sorptive interactions when MeBT is bound to different transition metals. Different ratios of ligand (MeBT) and metal were chosen based on the coordination stichiometry of MeBT with each metal. The ionic strength was held constant at 0.0 1M, and H2SO4 and HNO3 were used as background electrolytes. Lead, copper and zinc concentrations of 10 mg/L and carbon concentrations of 5 g/L were employed for batch microcosm assays.
(§2) Microcosms used for benzotriazole-metal immobilization experiments on GAC. Microcosms consisted of 250 ml Erlenmeyer flasks containing 75 mls of test solution with and without activated carbon. 75 milliliter aliquots of MeBT solution containing known GAC masses were placed in 250 ml Erlenmeyer flask. The samples were allowed to equilibrate on a shaker table at 15° C. for no more than 24 hours. Following equilibration, the samples were centrifuged and the supernatant was analyzed for both metal and 5-MeBT content. Metal-ligand molar ratios of 1:0, 1:2, 1:10, and 1:30 were employed. Identical experiments were conducted for each metal in the absence of GAC for the same metal: ligand ratios to determine any possible metal removal effects associated with precipitation. The resulting aqueous metal concentrations were measured by DPP and confirmed by inductive coupled plasma/atomic emission spectroscopy (ARL 3410 ICP/AES) in an EPA certified laboratory in the Geology department at University of Colorado. 5-MeBT was measured by both DPP and HPLC methods.

[4] = Differential pulse polarography, stability constants (DeFord-Hume, Lingane), Pb(II); type: binding
Description: (§3) Such an approach was applied to estimate the strength of metal-benzotriazole interactions in acidic solutions. The current that flows during a single life time of a dropping mercury electrode (DME) is held at a given potential in a polarograph and is described by the Ilkovic Equation: Id=708nDo^1/2C0*m^2/3t^1/6 (2)
(§4) In their classic report, Deford and Hume (1951) defined a series of functions, where the change in reduction potential of a target ion, measured with a polarograph, can be directely related to its complexation stability by the progressive addition of a known ligand.
(§5) Stability constants are obtained as follows where F0(x)=ΣβnCL^n=β0β1CL+β2CL^2+ . . . +βnCL^n (7)
(§6) In order to obtain β1, . . . , βn, a widely-accepted graphical extrapolation method derived by Leden (1941) was applied. Sequential plots of equation (7) (Fn(X) vs. C) yielded a family of curves, through which coordination chemistry between metals and benzotriazoles was determined.
(§7) The maximum coordination number was also independently determined using the Lingane method reported by Crow (1969) with a plot of ΔE1/2 Vs. Log Cx relationship, using the Lingane equation: […]
(§8) βmxj (the overall stability constant), and j (maximum number of ligands coordinated with a metal through a reversible series of complexing interactions), were determined for Cu(II), Pb(II) and Zn(II) interactions with benzotriazoles. The present application reports the development and use of polarographic methods for quantification of benzotriazole complexes to study their potential for immobilizing metals on activated carbon surfaces.
(§9) Polarographic and voltammetric measurements were performed with a CV-50W Voltametric analyzer fitted with a controlled growth mercury electrode; this multimode electrode was used in a static mercury drop electrode (SMDE) mode. The mercury electrode was multiplexed using BAS commercial software (Bioanalytical Systems, Inc., Lafayette, Ind., USA) a platinum auxiliary electrode and an Ag/AgCl (3 M KCl) reference electrode. All potentials were normalized to the Ag/AgCl electrode. A system scan rate of 5 mV s^−1 was used with a drop time of 1 sec. For DPP, the pulse amplitude was 100 mV with a sample width of 17 msec. A repeatable drop size was produced using a borosilicate capillary tube. The solenoid activation setting was 100 ms for all runs.
(§10) For the stability constant calculations, a 15 ml supporting electrolyte solution was pipetted into the voltammetric cell and the metal salt addition was adjusted to yield a final concentration of approximately 10^−5 M. The ligand (5-methybenzotriazole) was then added in increasing concentration from 0 to 1×10^−2 M. Polarograms were constructed, and the shift in the half wave potential was recorded after each ligand addition. All DPP measurements were made in triplicate.

[5] = Batch microcosm immobilization of zinc on Calgon MRX-P GAC; conditions: pH 3, ligand to metal ratio 30:1, carbon 5 g/L
Experimental: as §1
as §2, with “The samples were allowed to equilibrate on a shaker table at 15° C. for no more than 24 hours.” left out, “Metal-ligand molar ratios of 1:0, 1:2, 1:10, and 1:30 were employed. Identical experiments were conducted for each metal in the absence of GAC for the same metal: ligand ratios to determine any possible metal removal effects associated with precipitation.” left out

[6] = Differential pulse polarography, Zn(II) complexation; type: binding; conditions: DPP, increasing MeBT
Description: as §3, §4, §8
Polarographic and voltammetric measurements were performed with a CV-50W Voltametric analyzer fitted with a controlled growth mercury electrode; this multimode electrode was used in a static mercury drop electrode (SMDE) mode. […]

[7] = Differential pulse polarography, stability constants (DeFord-Hume, Lingane), Cu(II); type: binding
Description: as §3, §4, §5, §6, §7, §8, §9, §10

[8] = Batch microcosm immobilization of lead on Calgon MRX-P GAC
Experimental: as §1, §2

[9] = Removal of benzotriazoles from solution by granular activated carbon; type: physicochemical; conditions: for soluble 5-MeBT content after exposure to GAC (HPLC): after 24 hours
Experimental: (§11) A spectra-Physics high performance liquid chromatograph (HPLC) fitted with a UV detector (λ=254 nm) was used. 5-MeBT analysis was performed isocratically using two Zorbax Rx-C8 4.6×250 mm columns in series (MacMod Analytical, Inc., Chadds Ford, Pa., USA). The eluent consisted of a phosphate buffer mixed in a 70:30 ratio with HPLC grade acetylnitrile at a flow rate of 1.5 ml/minute with a sample injection volume of 200 μl. All samples were centrifuged at 10,000×g for 5 minutes prior to analysis.
Using simple time-series analysis of soluble methylbenzotriazole, the minimum time required for complete sorption was determined. Each experiment reached equilibrium before 48 hours, using a criteria of no more than 4% change in aqueous concentration during the observation period. Mass balances were used to determine the equilibrium portioning of MeBT in the microcosms system. Aqueous concentration data was used to calculate the amount of MeBT associated with GAC by differences. The equilibrium partioning data were then inverted and log-transformed, and tested against widely-accepted sorption models for “best-fit”.
as §11, with “chromatography” for “chromatograph”, “(HPLC)” for “(HPLC) fitted”, “UV-Vis Detector” for “a UV detector”, “Methylbenzotriazole” for “5-MeBT”
as §2

[10] = Pb(II) 3 × 10^−5 M, 5-MeBT 0-7 × 10^−3 M
[11] = [Pb(II)]=3×10^−5M, pH=3, T=25° C.
[12] = Cu(II) 5 × 10^−5 M, 5-MeBT 0-3 × 10^−3 M
[13] = [Cu(II)]=5×10^−5M, pH=2.5, T=25° C.

Structure (SMILES): Cc1ccc2[nH]nnc2c1 [5-MeBT, 5-methylbenzotriazole]
- desorption of 5-MeBT from saturated Calgon MRX-P [1]: did not liberate measurable amounts
- first pKa (dissociation) [2]: ~2 and 2
- second pKa (dissociation) [2]: ~9
- pKa ([2]; weak organic acid): approximately 8.8
- share of copper sequestered on GAC associated with an MeBT precipitate ([3]; pH 2): almost none
- Cu(II) removal efficiency, maximum ([3]; pH 2, ligand to metal ratio 30:1, carbon 5 g/L): 13%
- share of copper removal associated with an MeBT precipitate ([3]; pH 3): approximately 18%
- Cu(II) removal ([3]; pH 3, MeBT to Cu(II) molar ratios of 2, 10 and 30): 32-35%
- share of copper removal associated with an MeBT precipitate ([3]; pH 4): ~40%
- DeFord-Hume method Log β1 [4, 10]: 3.3
- Lingane method Log βn [4, 10]: 3.8
- Maximum coordination number (ligand: metal ratio) [4, 10]: 1
- β1 from intercept of F1(X) vs. [MeBT] [4, 11]: ~1.8×10^3
- β1 from slope of Fo(X) vs. [MeBT] [4, 11]: ~2.2×10^3
- Zn(II) removal efficiency, maximum [5]: 9%
- potential shift on addition of MeBT to zinc-containing solutions [6]: no potential shifts
- potential shift on addition of MeBT to zinc-containing solutions ([6]; listed as methybenzotriazole): no significant potential shifts
- β (copper complexing agent) [7]: ~10^15
- DeFord-Hume method Log β1 [7, 12]: 12.8
- DeFord-Hume method Log β2 [7, 12]: 15.8
- Lingane method Log βn [7, 12]: 15.8
- Maximum coordination number (ligand: metal ratio) [7, 12]: 2
- β1 (first complex stability) from intercept of F1(X) [7, 13]: ~6×10^12
- β2 (overall stability constant) from slope of F1(X) [7, 13]: ~7×10^15
- β2 from intercept of F2(X) vs. [5-MeBT] [7, 13]: 7×10^15
- share of lead sequestered on GAC associated with an MeBT precipitate [8]: approximately 25%
- share of lead sequestered on GAC associated with soluble MeBT complex [8]: ~75%
- Pb(II) removal in the absence of GAC (precipitation) ([8]; pH 2, MeBT to Pb(II) molar ratio 2): approximately 2.5%
- Pb(II) removal in the absence of GAC (precipitation) ([8]; pH 2, MeBT to Pb(II) molar ratio 10): ~6%
- Pb(II) removal in the absence of GAC (precipitation) ([8]; pH 2, MeBT to Pb(II) molar ratio 30): ~12%
- precipitation-associated Pb(II) removal ([8]; pH 3, absence of GAC): about 20%
- Pb(II) removal efficiency, maximum ([8]; pH 3, ligand to metal ratio approximately 30:1, carbon 5 g/L): 82%
- time to sorption equilibrium ([9]; 1% GAC w/vol, 10-2000 mg/L MeBT, no more than 4% change criterion): < 48 h
- affinity for granular activated carbon compared with benzene ([9]; Calgon MRX 10×30 mesh, pH 2 to 5): approximately the same as that observed for benzene
- soluble 5-MeBT content after exposure to GAC (HPLC) ([9]; copper microcosms): less than 0.25 mg/L
- soluble 5-MeBT content after exposure to GAC (HPLC) ([9]; lead microcosms): less than 0.25 mg/L
- soluble 5-MeBT content after exposure to GAC (HPLC) ([9]; zinc microcosms): less than 0.25 mg/L
